In PubChem BioAssay (NCI) one finds TGI and GI50 data, which are given here for 21 compounds.

Among the test systems are COLO 205 colon; HCC-2998 colon; HOP-92 NSCLC; HS 578T breast; K-562 leukemia; NCI-H226 lung; OVCAR-4 ovarian; SF-295 CNS; UACC-62 melanoma; LOX IMVI melanoma.
Assay in all cases: growth of human tumour cells (NCI), 48 h

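Following 48 hours of exposure in 96-well plates, responses at five concentrations were used to interpolate endpoints linearly. Abbreviation: GI50, concentration required for 50% inhibition of growth. TGI: total growth inhibition.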 Some results are limits rather than exact numbers.

Consider `COc1cc2c(cc1OC(=O)c1cc3ccccc3[nH]1)N=C[C@@H]1CCCN1C2=O`, for which the TGI in the experiment with COLO 205 colon was 0.405 µM; in the experiment with HCC-2998 colon it was 1.12 µM; in the experiment on HOP-92 NSCLC, above 100 µM; with HS 578T breast, above 100 µM; in the experiment with K-562 leukemia it was 2.83 µM; in the experiment on NCI-H226 lung it was 5.97 µM. The TGI with OVCAR-4 ovarian was determined as 2.15 µM; with SF-295 CNS it was 4.48 µM; in the experiment with UACC-62 melanoma it was 0.707 µM.

`COc1ccc(-c2nnc(-c3ccncc3)o2)cc1`: the TGI in the experiment on COLO 205 colon, with HOP-92 NSCLC, with HS 578T breast, in the experiment with K-562 leukemia, with LOX IMVI melanoma and in the experiment with NCI-H226 lung was above 100 µM each time. In addition, the TGI with OVCAR-4 ovarian, in the experiment on SF-295 CNS and in the experiment on UACC-62 melanoma was above 100 µM in each case.

For the compound `COc1ccc(S(=O)(=O)Nc2ccc(-c3csc(N4C(=O)/C(=C/c5ccccc5)N=C4c4ccccc4)n3)cc2)cc1Cl`, the TGI was above 100 µM with COLO 205 colon; 69.7 µM in the experiment on HOP-92 NSCLC; above 100 µM with HS 578T breast; above 100 µM in the experiment with K-562 leukemia; above 100 µM with LOX IMVI melanoma; above 100 µM in the experiment on NCI-H226 lung. The TGI in the experiment on OVCAR-4 ovarian was 99.4 µM; with SF-295 CNS, above 100 µM; with UACC-62 melanoma it was above 100 µM.

With `C=CCCC(On1c(-c2ccc(Cl)cc2)csc1=S)c1ccccc1` (stereo not drawn), the TGI in the experiment on COLO 205 colon was above 100 µM; with HOP-92 NSCLC, above 100 µM; in the experiment with HS 578T breast, above 100 µM; in the experiment on K-562 leukemia, above 100 µM; with LOX IMVI melanoma, above 100 µM; with NCI-H226 lung, 81.8 µM. Moreover, the TGI in the experiment with OVCAR-4 ovarian, in the experiment on SF-295 CNS and with UACC-62 melanoma was above 100 µM each time.

Regarding `COC(=O)c1c(O)ccc2c1c1c(n2Cc2ccccn2)C(=O)c2ccccc2C1=O`, the TGI was 34.3 µM with COLO 205 colon; 35 µM in the experiment on HCC-2998 colon; above 100 µM in the experiment with HOP-92 NSCLC; above 100 µM in the experiment with HS 578T breast; above 100 µM with K-562 leukemia; above 100 µM in the experiment with NCI-H226 lung. Besides, the values for the TGI in the experiment with SF-295 CNS and in the experiment with UACC-62 melanoma were 70.6 µM and above 100 µM, respectively.

As for `O=c1oc2c/c(=C\c3ccccc3)c(=O)c3cccc1c3-2`, the TGI in the experiment with COLO 205 colon was above 100 µM; in the experiment with HCC-2998 colon, above 100 µM; with HOP-92 NSCLC, 41.6 µM; in the experiment on HS 578T breast, 73.2 µM; with LOX IMVI melanoma, 40.7 µM; in the experiment on NCI-H226 lung, 75.3 µM. Further, the TGI in the experiment on SF-295 CNS is above 100 µM; in the experiment on UACC-62 melanoma it was 59.9 µM.

`CNC(=O)c1ccccc1[S+]1c2cccc3cccc(c23)C(=O)N1C` (stereo not drawn): the TGI with COLO 205 colon, with HOP-92 NSCLC, with HS 578T breast, in the experiment on K-562 leukemia, in the experiment on LOX IMVI melanoma and with NCI-H226 lung was above 100 µM each time. For the same compound, the TGI in the experiment with OVCAR-4 ovarian, with SF-295 CNS and with UACC-62 melanoma was above 100 µM each time.

`CCCCCCCCCCCCCCCCCCOc1ccc(/C=C/C2=[N+](CCCl)CCO2)cc1`: the TGI in the experiment on COLO 205 colon, with HOP-92 NSCLC, with HS 578T breast, in the experiment with K-562 leukemia, with LOX IMVI melanoma and in the experiment with OVCAR-4 ovarian was above 100 µM each time. In addition, the TGI with SF-295 CNS and with UACC-62 melanoma was above 100 µM each time.

Turning to `CCOC(=O)c1cn(CC)c2cc3c(cc2c1=O)CCS3(=O)=O`, the TGI in the experiment on HCC-2998 colon, in the experiment on HOP-92 NSCLC, in the experiment on HS 578T breast, with K-562 leukemia, in the experiment on NCI-H226 lung and with SF-295 CNS was above 100 µM in each case. In the experiment with UACC-62 melanoma, this compound returned a TGI above 100 µM.

As for `Cn1cc(-c2nc(-c3c[nH]c4ccncc34)cs2)c2cc(F)ccc21`, the GI50 with HCC-2998 colon was 1.64 µM; in the experiment on HOP-92 NSCLC, 1.65 µM; with HS 578T breast it was 2.21 µM; with NCI-H226 lung, 1.92 µM; with SF-295 CNS, 1.64 µM; in the experiment on UACC-62 melanoma, 1.71 µM. Moreover, the TGI in the experiment with HCC-2998 colon turned out to be 3.08 µM; with HOP-92 NSCLC, 3.42 µM; in the experiment with HS 578T breast, 4.74 µM; with NCI-H226 lung, 3.9 µM; with SF-295 CNS it was 3.02 µM; with UACC-62 melanoma, 3.18 µM.

In the case of `S=c1nc2sc3c(c2c(Nc2ccc(Br)cc2)[nH]1)CCN(N1CCc2c(sc4nc(=S)[nH]c(Nc5ccc(Br)cc5)c24)C1)C3`, the TGI in the experiment on COLO 205 colon was above 50 µM; in the experiment with HCC-2998 colon it was above 50 µM; in the experiment with HS 578T breast, above 50 µM; in the experiment on K-562 leukemia, above 50 µM; in the experiment on LOX IMVI melanoma it was 24.9 µM; with NCI-H226 lung, above 50 µM. In addition, the TGI in the experiment on OVCAR-4 ovarian, in the experiment with SF-295 CNS and in the experiment on UACC-62 melanoma was above 50 µM in each case.

With `Cc1cc2c(c(C(=O)NCCC(=O)N[C@@H](C)C(=O)OCc3ccccc3)c1)Oc1c(cc(C)cc1C(=O)NCCC(=O)N[C@@H](C)C(=O)OCc1ccccc1)S2`, the TGI in the experiment with COLO 205 colon, in the experiment on HCC-2998 colon, with HS 578T breast, in the experiment with K-562 leukemia, in the experiment on NCI-H226 lung and with OVCAR-4 ovarian was above 100 µM in each case. Moreover, the TGI in the experiment with SF-295 CNS and with UACC-62 melanoma was above 100 µM throughout.

`NC(=O)CCC(NC(=O)c1cccc2c(=O)c3ccccc3[nH]c12)C(=O)O` (stereo not drawn): the TGI in the experiment with COLO 205 colon, in the experiment on HOP-92 NSCLC, in the experiment on HS 578T breast, with K-562 leukemia, in the experiment with LOX IMVI melanoma and in the experiment on NCI-H226 lung was above 100 µM throughout. Besides, the TGI in the experiment with OVCAR-4 ovarian, in the experiment on SF-295 CNS and in the experiment on UACC-62 melanoma was above 100 µM in each case.

`CO[C@H]1C[C@H](n2cc(C)c(=O)[nH]c2=O)O[C@@H]1CO`: the TGI in the experiment with COLO 205 colon, in the experiment on HCC-2998 colon, in the experiment on HS 578T breast, with K-562 leukemia, with LOX IMVI melanoma and in the experiment with NCI-H226 lung was above 100 µM throughout. The TGI in the experiment with OVCAR-4 ovarian, in the experiment on SF-295 CNS and in the experiment with UACC-62 melanoma was above 100 µM each time.

On to `O=S(=O)(O)c1cc(Nc2ccnc3ccccc23)c2c(S(=O)(=O)O)cc(S(=O)(=O)O)cc2c1`, for which the TGI in the experiment with COLO 205 colon, with HCC-2998 colon, in the experiment with HS 578T breast, in the experiment with LOX IMVI melanoma, with NCI-H226 lung and in the experiment on OVCAR-4 ovarian was above 100 µM each time. The TGI in the experiment on UACC-62 melanoma is above 100 µM.

On to `N#CCSc1c(-c2ccccc2)c(=O)n(-c2ccccc2)c(=S)n1-c1ccccc1`, for which the TGI in the experiment with COLO 205 colon, in the experiment on HOP-92 NSCLC, in the experiment on HS 578T breast, with K-562 leukemia, in the experiment on LOX IMVI melanoma and in the experiment with NCI-H226 lung was above 100 µM in each case. The TGI in the experiment with OVCAR-4 ovarian, in the experiment on SF-295 CNS and in the experiment with UACC-62 melanoma was above 100 µM each time.

`CCCC(=O)Nc1cc(/C=C/C(=O)N2CC(CCl)c3c2cc([N+](=O)[O-])c2ccccc32)n(C)c1` (stereo not drawn): the TGI in the experiment with COLO 205 colon, with HCC-2998 colon, in the experiment with HOP-92 NSCLC, with HS 578T breast, in the experiment with K-562 leukemia and in the experiment with NCI-H226 lung was above 100 µM each time. In addition, the TGI in the experiment on OVCAR-4 ovarian, in the experiment with SF-295 CNS and with UACC-62 melanoma was above 100 µM throughout.

As for `O=C(O)CN(CC(=O)O)Cc1ccn(-c2cccc(-n3ccc(CN(CC(=O)O)CC(=O)O)n3)n2)n1`, the TGI with COLO 205 colon, in the experiment with HCC-2998 colon, in the experiment with HOP-92 NSCLC, in the experiment with HS 578T breast, with NCI-H226 lung and in the experiment with SF-295 CNS was above 100 µM each time. The same compound came in with a TGI in the experiment with UACC-62 melanoma above 100 µM.

`COc1cc([C@@H]2c3cc4c(cc3[C@@H](N=Cc3ccc(C(=O)O[C@@H](C(=O)O[C@H]5C[C@@]6(O)[C@@H](OC(=O)c7ccccc7)[C@@H]7[C@]8(OC(C)=O)CO[C@@H]8C[C@H](O)[C@@]7(C)C(=O)[C@H](OC(C)=O)C(=C5C)C6(C)C)[C@@H](NC(=O)c5ccccc5)c5ccccc5)cc3)[C@H]3COC(=O)[C@H]23)OCO4)cc(OC)c1O`: the TGI with HCC-2998 colon was 2.92 µM; in the experiment on HOP-92 NSCLC it was above 50 µM; in the experiment with HS 578T breast it was above 50 µM; with K-562 leukemia it was above 50 µM; with LOX IMVI melanoma, above 50 µM; with OVCAR-4 ovarian it was above 50 µM. For the same compound, the TGI in the experiment with SF-295 CNS is 24.8 µM; in the experiment with UACC-62 melanoma, above 50 µM.

Consider `COc1nc2ccc(CNc3ccc(C(=O)O)cc3)cc2nc1OC`, for which the TGI in the experiment on COLO 205 colon, with HCC-2998 colon, in the experiment with HS 578T breast, with K-562 leukemia, in the experiment with LOX IMVI melanoma and in the experiment on NCI-H226 lung was above 10 µM throughout. Also, the TGI in the experiment with OVCAR-4 ovarian, in the experiment with SF-295 CNS and in the experiment on UACC-62 melanoma was above 10 µM in each case.

Consider `Cc1c(O)c(=O)ccn1CCc1c[nH]c2ccccc12`, for which the TGI in the experiment with COLO 205 colon was 73.9 µM; in the experiment with HOP-92 NSCLC it was 46.5 µM; in the experiment with HS 578T breast, 54 µM; in the experiment with K-562 leukemia it was 66.7 µM; in the experiment with LOX IMVI melanoma, 17 µM; in the experiment with SF-295 CNS, above 100 µM.
